“And” between values parts separate entries of the source, which are not always exact repeats. Identical values can stand only once. “Also recorded” adds a separate entry of the source. Like-named read-outs stand apart in the source and are kept apart here.
Experiments:
Vero cells [1] = experiment: Cell proliferation assay (MTS tetrazolium, absorbance 490 nm); assay type: cell-based, green monkey; details: for absorbance at 490 nm (single reading): 1 hour, read 24 hours later; for inhibition of cell proliferation: up to 75 μM, compared to controls
Procedure: A cell proliferation kit (G5421, Promega Corp.) was used. This is a colorimetric method for determining cell proliferation. This kit contains a tetrazolium compound and an electron-coupling reagent (phenazine methosulfate). Only live cells will be able to bioreduce the tetrazolium compound into soluble formazan. Thus, the amount of formazan formed and measured at 490 nm absorbance is directly proportional to the number of live cells. Cells were plated into 96 well plates and after 24 hrs they were treated with different concentrations (12.5, 25, 50, 75, 100 μM) of polyphenols and allowed to adsorb for 1 hour. Polyphenols were then aspirated and 100 μL of fresh DMEM was added back to each well. 24 hours later, 20 μL of the MTS reagent was added to every 100 μL of cells in media. The plates were incubated at 37° C. and 5% CO2 for 4 hours, and then the absorbance was read using a plate reader. […] In this study, cell proliferation was examined under the same conditions as described before. Each experiment was assayed in triplicates, and absorbance of this colorimetric assay was recorded at 490 nm using a 96 well ELISA plate reader.

[2] = Stability of the polyphenol (statements, no method); assay type: physicochemical; details: vaginal pH
HSV1-UL46 = experiment: GFP expression study using a fluorometer; assay type: cell-based; details: 75 μM, virions treated 3 hours, cells 12 hrs
Procedure: GFP expression was studied in Escherichia coli that contained GFP plasmid, and Escherichia coli without GFP plasmid. The fluorometer used was a Tuner Digital Fluorometer-Model 450. Samples were put into 3 mLs of H2O and serial dilutions were performed from the first 3 mLs of each sample. A standard dilution curve was obtained from the serial dilutions. Next, Vero cells were grown on T-75 flasks and allowed to reach confluence. HSV1 virions were treated for 3 hours with 75 μM of polyphenols prior to cell infection. Cells were then infected with treated and non-treated HSV1-UL46 and allowed to adsorb for 1 hour. Viruses that had not been absorbed were then removed by washing the cells twice with PBS. The cells were then incubated at 37° C. for 12 hrs. Cells were then trypsinized and pelleted. Finally, cells were resuspended with 3 mLs of H2O and analyzed for GFP expression using a fluorometer. 3 ml of water was used as the blank sample. The Gain knob was set to 1000 for higher fluorescence sensitivity.
In this experiment, Vero cells only, HSV1/Vero cells, and 75 μM EGCG-ester-HSV1/Vero cells were used to quantitatively measure GFP expression.

HSV1 [3] = experiment: Viral titer study using plaque assay, HSV virions pre-treated with polyphenol, Vero cells; assay type: cell-based
Procedure: Vero cells were plated on 6 well plates and allowed to reach confluence. HSV virions were treated for 1 hour with the respective concentration of polyphenols (12.5, 25, 50, 75, 100 μM) prior to cell infection. Cells were then infected with HSV and allowed to adsorb for 1 hour. Viruses that had not been absorbed were then aspirated. Plates were then overlaid with a nutrient medium-containing agar. Plaques were visualized by staining cells with crystal violet, observed, and counted within 50 hours.
Viral titer was determined to study the effect of 50 μM of EGCG and EGCG-ester on the viral particle production by using plaque assay. Serial dilutions of viral lysates were performed from 10^−1 to 10^−7 and cells were then infected respectively with the dilutions.
In order to obtain the minimum inhibitory concentration of EGCG-ester on HSV1, different concentrations (12.5, 25, 50, 75 μM) of EGCG-ester were used at lower dilution of viral lysate (10^−1 and 10^−2).

Vero cells [4] = experiment: Cytotoxicity assay, morphological and proliferation changes by microscope; assay type: cell-based, green monkey; details: for change of cell morphology: 12.5 to 75 μM; for maximum nontoxic concentration: Vero cells; for effect on the cells: higher concentration
Procedure: Cells were studied for morphological and proliferation changes 48 hrs later using an ACCU-Scope 3002 microscope with a camera attached. […] Cells were studied for morphological and proliferation changes 24 hrs later using an ACCU-Scope 3002 microscope with a camera attached. In order to determine the proper concentrations of EGCG and EGCG-ester to be used for treating HSV1, the effect of polyphenols on the cells were studied. […] In this experiment, the polyphenols were added at the same time as the cells were plated and were not removed subsequently. The effect of different concentrations of EGCG-ester on Vero cells was also observed at 24 hrs. […] EGCG-ester was then aspired, and cells were observed 24 hours later.

HSV1 [5] = experiment: Fluorescence microscopy of GFP-HSV1 lytic cycle in Vero cells; assay type: cell-based; details: for virus replication and formation of virions: virus treated with 100 μM
Procedure: Cells were grown on glass cover slips and allowed to reach confluence. They were then infected with either control HSV or previously treated HSV for 1 hour. Time course studies were performed in which the virus was allowed to adsorb for 1 hour and then aspirated. Cells were washed with PBS and media was added to each well. After a period of 8, 10, and 12 hours, cells were then fixed with a 1:1 acetone and methanol solution and visualized under a Zeiss Axiovision fluorescence microscope using differential interference contrast settings.
HSV1/Vero cells were used as positive controls and Vero cells were used as negative control. 75 μM EGCG ester-HSV1/Vero cells were also monitored and compared to controls. GFP-HSV1, DAPI stained nucleus and lysosome stain were used to identify cytopathic effects on Vero cells. The course study was performed in triplicates.

HSV-2 = details: Vero cells; cited from earlier work
HSV = HSV plaque assays using Vero cells with and without EGCG (Example 1); assay type: cell-based; details: 100 μM applied
Procedure: HSV plaque assays using Vero cells were conducted with and without the addition of epigallocatechin gallate (EGCG).

HSV-1 [6] = details: antibodies against gB, gD, and a capsid protein; cited from earlier work
HSV-1 [7] = details: cited from earlier work
[8] = for a topical application; cited from earlier work
[9] = 75 μM, 8 to 12 hours post infection

Row | SMILES | absorbance at 490 nm, Mean (Vero cells [1]; 12.5 μM) | absorbance at 490 nm (single reading) (Vero cells [1]; 12.5 μM) | absorbance at 490 nm, Mean (Vero cells [1]; 25 μM) | absorbance at 490 nm (single reading) (Vero cells [1]; 25 μM) | absorbance at 490 nm, Mean (Vero cells [1]; 50 μM) | absorbance at 490 nm (single reading) (Vero cells [1]; 50 μM) | absorbance at 490 nm, Mean (Vero cells [1]; 75 μM) | absorbance at 490 nm (single reading) (Vero cells [1]; 75 μM) | absorbance at 490 nm, Mean (Vero cells [1]; 100 μM) | absorbance at 490 nm (single reading) (Vero cells [1]; 100 μM) | inhibition of cell proliferation (Vero cells [1]) | change of cell morphology (Vero cells [4]) | maximum nontoxic concentration (Vero cells [4]) | effect on the cells (Vero cells [4]) | virus replication and formation of virions (HSV1 [5]) | other results
1 | CCCCCCCCCCCCCCCC(=O)Oc1c(O)cc([C@H]2Oc3cc(O)cc(O)c3C[C@H]2OC(=O)c2cc(O)c(O)c(O)c2)cc1O [EGCG-ester] | 0.627 | 0.642 and 0.647 and 0.574 | 0.647 | 0.668 and 0.651 and 0.621 | 0.676 | 0.663 and 0.698 and 0.667 | 0.653 | 0.582 and 0.689 and 0.687 | 0.717 | 0.691 and 0.741 and 0.719 | not inhibiting cell proliferation to a great extent | do not induce a change cell morphology | 75 µM | not significantly affected | not able to replicate and form more virions | stability [2]: stable at vaginal pH; GFP expression (fluorometer) compared to HSV1/Vero cells (HSV1-UL46): much lower; reduction of HSV1 ability to form plaques (HSV1 [3]; 50 μM EGCG-ester and above, viral lysate dilution 10^−1 and 10^−2): > 99%; plaque (PFU) formation (HSV1 [3]; 50 μM and above): no plaques observed; also recorded: completely inhibits PFU formation; plaque formation (HSV1 [3]; 50 μM, viral lysate dilutions 10^−1 to 10^−7): no plaque formation; cell morphology (Vero cells [4]; 100 μM, added when cells were plated, not removed, 48 hrs): affected to a certain extent; cell morphology (Vero cells [4]; 12.5-100 μM for 1 hour on cells plated 24 hours, observed 24 hours later): not greatly affected; inhibition of HSV1 infections (HSV1 [5]; [9]): able to inhibit HSV1 infections; visible viral particles in infected cells (HSV1 [5]; [9]): almost no virions; GFP expression in green fluorescence images (HSV1 [5]; 75 μM, 8 hrs post infection): almost none
2 | O=C(O[C@@H]1Cc2c(O)cc(O)cc2O[C@@H]1c1cc(O)c(O)c(O)c1)c1cc(O)c(O)c(O)c1 [EGCG, (−)-epigallocatechin-3-gallate, reference compound] | 0.607 | 0.615 and 0.606 and 0.601 | 0.621 | 0.628 and 0.620 and 0.616 | 0.603 | 0.632 and 0.587 and 0.589 | 0.647 | 0.645 and 0.652 | 0.698 | 0.688 and 0.677 and 0.730 | not inhibiting cell proliferation to a great extent | do not induce a change cell morphology | 75 µM | not significantly affected | not able to replicate and form more virions | inhibition of HSV infection (HSV-2): successfully inhibited HSV infection in a concentration dependent manner; viral plaques (HSV): no viral plaques were observed; drop in immunogold labeling, treated compared to untreated virions (HSV-1 [6]): 30% and 40%; viral production (HSV-1 [7]; Vero cells treated following adsorption and entry of HSV-1): does not inhibit the viral production; inhibition of HSV infection (HSV-1 [7]; Vero cells): successfully inhibited HSV infection in a concentration dependent manner; fold decrease in titer / plaque formation vs HSV1/Vero (HSV1 [3]; 50 μM): 10 fold; viral titer (HSV1 [3]; HSV1 treated with 50 μM polyphenol before infection of Vero cells): 1×10^5 PFU/ml; morphological changes (Vero cells [4]; 12.5-100 μM, added when cells were plated, not removed, observed at 48 hrs): no morphological changes; stability [8]: highly unstable and oxidizes very quickly

— patent US9446017B2, “Compositions and methods for treating herpes simplex virus” (Augusta University Research Institute, Inc., priority 2005, dated 2016)
